The test system of data set [1] is sterol biosynthesis in T. cruzi amastigotes. Put plainly: Lipid analysis of T. cruzi amastigotes (GC-MS of membrane sterols). The note with it: amastigotes in C2C12 myoblasts, 24 h drug treatment, concentrations 5x below cidal; posaconazole 100 nM. The format is cell-based, Trypanosoma cruzi. As for the experimental part: To grow intracellular amastigotes for lipid analysis, C2C12 mouse skeletal myoblasts (4×10^6 cells) cultured in 150 cm^2 flasks as described above were infected with 80×10^6 trypomastigotes for 24 h. The cultures were treated with test compounds 72 h post-infection at concentrations 5× below cidal to avoid completely killing the parasites. Posaconazole at 100 nM was used as a positive control. […] Cells were harvested 96 h post-infection and after 24 h of drug treatment. Cell detachment was initiated by brief treatment with 10 ml of 0.25% trypsin in PBS, followed promptly by replacement with 10 ml of fresh media containing FBS. Harvested cells were washed 3× with 25 ml of PBS to remove FBS and released trypomastigotes. The suspension of infected cells was then transferred to a glass tube and centrifuged at 2000 rpm for 5 min. After washing with PBS, 2 ml of chloroform-methanol solution (2∶1 ratio) was added to re-suspend the cell pellet. Organic solvents were then evaporated under N2 flow, allowing the pellet to dry.
For total lipid extraction, the dry cell pellet was treated with 2 ml chloroform for 24 h. Polar molecules were removed by washing the organic phase 3× with 3 ml water. The organic phase containing the sterols was subsequently dried on an evaporator under N2 flow. The lipids were re-suspended in 2 ml of chloroform-methanol (9∶1 ratio), washed again 3× with 3 ml water, dried under N2 flow and re-suspended in acetonitrile. After an additional wash 3× with 3 ml water, the acetonitrile was dried under an N2 stream. Extracted dry sterols were re-dissolved in hexane and derivatized with N,N-bis(trimethylsilyl)-2,2,2-trifluoroacetamide (BSTFA) (Pierce) by incubating at 37°C for at least 2 hours. Sterols as their trimethylsilyl (TMS) derivatives were analyzed by gas chromatography and mass spectrometry (GC-MS). GC-MS analysis and lipid identification were performed as described previously.

Data set [2] relates to host cell (skeletal myoblasts, bovine embryo skeletal muscle or C2C12). Put plainly: Host cell toxicity in the cross-validation assay. The class given is cell-based. The note with it: host cells in cross-validation assay, up to 10 µM.

“Also recorded” adds a separate entry of the source.

`Brc1ccccc1OCCCCCCn1ccnc1` [Compound 1]: the “Effect on membrane sterol composition by GC-MS” value in data set [1] is “lanosterol (f) and eburicol (h) dominated the GC-MS traces; also recorded: fecosterol (e) was completely inhibited; also recorded: suppressed sterol biosynthesis in T. cruzi amastigotes more efficiently than posaconazole”. For the same compound, the “Toxicity score (highest percentage of host cell growth inhibition)” value in data set [2] was 2 (2-21-30%).

On to `O=C(c1ccc(Cl)cc1)C(Oc1ccc(Cl)cc1)n1cncn1` (stereo not shown) [Compound 13, 2-(4-chlorophenoxy)-1-(4-chlorophenyl)-2-(1H-1,2,4-triazol-1-yl)ethanone], for which the “Effect on membrane sterol composition by GC-MS” value in data set [1] is “present in amounts comparable to those of 14-demethylated products; also recorded: increase in lanosterol and eburicol precursors and a concomitant decline in episterol, fecosterol and other 14-demethylated intermediates”. In addition, the “Toxicity score (highest percentage of host cell growth inhibition)” value in data set [2] was 3 (3- 31-40%).

(Values after PMC3409115, “Diverse Inhibitor Chemotypes Targeting Trypanosoma cruzi CYP51” (PLoS Neglected Tropical Diseases, 2012).)
